Test systems include IGROV-1; HOP-92; OVCAR-3; SK-MEL-28; Malme-3M; MDA-MB-231; M14; PC-3; SR; SK-MEL-2; OVCAR-8; MCF7; MDA-N; COLO 205; KM-20L2; HCC 2998; SF-295; SF-268; RPMI-8226; A498.
What all share (assay): NCI anticancer screen, dose series, 48 h

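The compound was tested at five concentrations on cells cultured in 96-well plates, with a 48-hour exposure period. GI50 is the concentration that inhibits growth by half.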 Active and inactive are the calls of the source. Rule as the data show it: active = GI50 up to about 1.1 µM and inactive = higher.

On to `CCN(CC)CCCNc1ncc(C)c2c1c1ccc3c(O)cccc3c1n2C`, for which the GI50 was 1.96 µM (inactive) with IGROV-1; 9.16 µM (inactive) with HOP-92; 3.87 µM (inactive) in the test with OVCAR-3; 9.82 µM (inactive) with SK-MEL-28; 14.7 µM (inactive) in the test on Malme-3M; 1.57 µM (inactive) in the test on MDA-MB-231. Besides, the GI50 in the test with M14 was 4.15 µM (inactive); with PC-3 it was 0.687 µM (active); in the test on SR, 0.282 µM (active); in the test on SK-MEL-2, 12.2 µM (inactive); in the test on OVCAR-8, 1.43 µM (inactive); in the test on MCF7 it was 0.191 µM (active). For the same compound, the GI50 with MDA-N was 1.65 µM (inactive); in the test on COLO 205, 5.52 µM (inactive); with KM-20L2, 3.07 µM (inactive); with HCC 2998 it was 0.798 µM (active); in the test with SF-295, 1.73 µM (inactive); in the test on SF-268 it was 2.5 µM (inactive). For the same compound, the results for the GI50 with RPMI-8226 and in the test with A498 were 1.47 µM (inactive) and 13.6 µM (inactive), respectively.

As for `Nc1ncnc2c1nc(Cl)n2[C@@H]1O[C@@H]2COP(=O)(O)O[C@H]2[C@H]1O` [TOCLADESINE], the GI50 in the test on IGROV-1 was 24.5 µM (inactive); in the test with HOP-92, 12.2 µM (inactive); in the test with OVCAR-3, 44.9 µM (inactive); in the test with SK-MEL-28, 295 µM (inactive); in the test with Malme-3M it was 152 µM (inactive); in the test with MDA-MB-231, 21.5 µM (inactive). The GI50 with M14 is 8.02 µM (inactive); in the test with PC-3, 8.3 µM (inactive); with SR it was 4.7 µM (inactive); in the test on SK-MEL-2, > 99.8 µM (inactive); in the test on OVCAR-8, 5.42 µM (inactive); with MCF7 it was 8.11 µM (inactive). Further, the GI50 in the test with MDA-N was 10.9 µM (inactive); with COLO 205 it was 10 µM (inactive); in the test on KM-20L2, 13.5 µM (inactive); in the test with HCC 2998 it was 37.8 µM (inactive); in the test on SF-295, 51.2 µM (inactive); in the test on SF-268 it was 32 µM (inactive). The figures for the GI50 in the test with RPMI-8226 and with A498 were 6.47 µM (inactive) and 67.6 µM (inactive), respectively.

The record behind these values is ChEMBL document CHEMBL1201862, “PubChem BioAssay data set” (2004).
